Test results from PMC7026882, “Macrofilaricidal Benzimidazole–Benzoxaborole Hybrids as an Approach to the Treatment of River Blindness: Part 2. Ketone Linked Analogs” (ACS Infectious Diseases, 2019).
Like-named read-outs stand apart in the source and are kept apart here.

Tests used:
[1] = system: mammalian tubulin (G2/M arrest); assay: G2/M arrest assay, indicative of interaction with mammalian tubulin; assay type: cell-based
Source text: (§1) As summarized in Table 1, we were encouraged to find that the initial ketone analogs prepared, namely, 15 (6-linked) and 20 (5-linked), were quite active in an O. volvulus molting assay we used as a primary indicator of antiparasitic activity[30],[31] and were only weakly active in a G2/M arrest,[32] indicative of the interaction with mammalian tubulin. As described above, our hypothesis was to reduce Pgp efflux liability through elimination of the hydrogen-bond donor associated with the N–H of the amide linker, as this has been shown in the literature to be a contributor to recognition by Pgp.[33],[34] […] We were disappointed to find that the 5-linked analog 22 was poorly selective and the 6-linked analog 23 was only weakly active.

[2] = Metabolic stability (Clint) in human microsomes; assay type: in vitro ADME
Source text: as §1

[3] = Pharmacokinetics in Mongolian gerbils; assay type: in vivo
Source text: (§2) In addition, the concentrations achieved at these doses were well in excess of the O. volvulus IC50, a requirement for in vivo activity that we had hypothesized on the basis of earlier work in the amide-linked series.

Brugia pahangi = assay: In vivo efficacy in the L3 Brugia pahangi gerbil model; conditions: for Number of Worms Recovered, Avg Female Worms / Number of Worms Recovered, Avg Male Worms: PO, 100 mg/kg, recovery day 63
Experimental: For our in vivo model, gerbils were infected by injecting B. pahangi third-stage larvae (L3) that were subsequently allowed to develop to adult worms over several months. Once stable infections had been established, 21 was administered as a suspension via once-daily oral gavage at a dose of 100 mg/kg for 7, 14, or 28 days. All animals were maintained until day 63 after the start of dosing, at which time adult worms were recovered from the peritoneal cavity and microfilariae were quantified in blood samples. Flubendazole (5 mg/kg, SC × 5 days) was included as a positive control in this study. […]
(§3) in comparison to the number of control larvae that had successfully molted. IC50 values were calculated using GraphPad Prism v6.0 (http://www.graphpad.com). See Bullman et al., PLoS
(§4) Negl. Trop. Dis., 2015, 9, e3534 for further details.
(§5) Adult Brugia malayi in vivo model procedure.
(§6) Gerbils (Meriones unguiculatus) were infected by transplantation of 10 male and 10 female adult Brugia malayi into the peritoneal cavity. Gerbils were acclimated for 7 days prior to treatment. Animals were dosed based on their body weight prior to each dosing. Animals were administered their doses at the same time each day and receive standard rodent laboratory diet and water ad libitum. Gerbils were humanely euthanized at the conclusion of each study.
(§7) Peritoneal counts of male and female adult B. malayi and visual condition of the peritoneum […]
(§8) L3 Brugia pahangi in vivo model procedure.
(§9) Male gerbils (Meriones unguiculatus) approximately 6 weeks of age (50-60 g) were purchased from Charles Rivers (USA, Kingston K62 Gerbils) and infected by intraperitoneal injection with 200 Brugia pahangi third-stage larvae (L3) per animal (Filariatech, Inc., Athens, GA). Gerbils were housed with no more than 5 animals per cage and maintained 9 months prior to treatment. All gerbils were dosed in accordance with their body weight determined prior to each dosing. Animals were administered their doses at the same time each day and are allowed to feed and drink ad libitum. Gerbils were euthanized following approved institutional protocols. Euthanized animals were weighed and examined for external and visceral pathologies. The adult Brugia worms were recovered by opening the body cavity and washing the peritoneal cavity with 100 mL of phosphate buffered saline. Male and female worms were counted using a dissecting microscope.
(§10) Litomosoides sigmodontis in vivo model procedure. 2
(§11) All animal experiments with L. sigmodontis were conducted at the Institute for Medical Microbiology, Immunology and Parasitology (IMMIP), University Hospital of Bonn, in accordance to the European Union animal welfare guidelines. All protocols were approved by the local authorities (Landesamt für Natur, Umwelt und Verbraucherschutz, Cologne, Germany (AZ 84- […]
(§12) Janvier (Saint-Berthevin, France) and were housed at the animal facility of the IMMIP in individually ventilated cages on a 12h light/dark cycle with food and water ad libidum. Mice were infected at 6-8 weeks of age via exposure to the natural mite vector Ornithonyssus bacoti

[4] = Metabolite ID studies, in vitro and in vivo; assay type: in vitro ADME; conditions: in vitro or in vivo experiments
Source text: However, the metabolism of flubendazole by the reduction of the ketone leads to short-lived clastogenic metabolites at low levels that may pose a minimal risk.[28]

[5] = Tolerability of once daily dosing to gerbils over 7 days; assay type: in vivo
Source text: as §2

O. volvulus = O. volvulus molting assay; assay type: cell-based; conditions: Onchocerca volvulus; molting assay
Source text: as §1, with “active. […]” for “active.”
as §3, §4, §5, §6, §7, §8, §9, §10, §11, §12

MDCK-MDR1 cell monolayer = MDCK-MDR1 cell monolayer permeability assay; assay type: in vitro ADME
Source text: as §1

[6] = MDCK-MDR1 cell monolayer permeability assay; assay type: in vitro ADME; conditions: dog
Source text: as §1

COC(=O)Nc1nc2ccc(C(=O)c3cccc4c3B(O)OC4)cc2[nH]1 [compound 21]
IC50 [1]: > 38000 nM | microsomal CLint [2]: 5.9 µL/min/mg | CLint scaled ([3]; Mongolian gerbil, blood, 2 mg/kg, Table 3, IV, dose 2): 4.82 mL/min/kg | AUC0-last ([3]; Table 3, IV, dose 2): 5950 ng·h/mL | Cmax ([3]; Table 3, IV, dose 2): 1560 ng/mL | AUC0-last ([3]; Table 3, PO, dose 10): 61700 ng·h/mL | Cmax ([3]; Table 3, PO, dose 10): 5750 ng/mL | AUC(0-t) ([3]; blood, 2 mg/kg, Mongolian gerbils, dose 2, IV, read-out: AUC0–24): 5950 ng·h/mL | Cmax ([3]; blood, 2 mg/kg, Mongolian gerbils, dose 2, IV, read-out: Cmax): 1560 ng/mL | Vd ([3]; blood, 2 mg/kg, Table 3, IV, dose 2, read-out: Vdss): 3.19 L/kg | AUC(0-t) ([3]; blood, 10 mg/kg, Mongolian gerbils, dose 10, PO, read-out: AUC0–24): 61700 ng·h/mL | Cmax ([3]; blood, 10 mg/kg, Mongolian gerbils, dose 10, PO, read-out: Cmax): 5750 ng/mL | AUC(0-t) ([3]; blood, 10 mg/kg, Table 3, SC, dose 10, read-out: AUC0-last): 35700 ng·h/mL | Cmax ([3]; blood, 10 mg/kg, Table 3, SC, dose 10, read-out: Cmax): 3130 ng/mL | AUC(0-t) ([3]; blood, 30 mg/kg, Table 3, PO, dose 30, read-out: AUC0-last): 196000 ng·h/mL | Cmax ([3]; blood, 30 mg/kg, Table 3, PO, dose 30, read-out: Cmax): 17200 ng/mL | AUC(0-t) ([3]; blood, 60 mg/kg, Table 3, PO, dose 60, read-out: AUC0-last): 361000 ng·h/mL | Cmax ([3]; blood, 60 mg/kg, Table 3, PO, dose 60, read-out: Cmax): 26300 ng/mL | AUC(0-t) ([3]; blood, 100 mg/kg, Table 3, PO, dose 100, read-out: AUC0-last): 479000 ng·h/mL | Cmax ([3]; blood, 100 mg/kg, Table 3, PO, dose 100, read-out: Cmax): 34500 ng/mL | bioavailability ([3]; blood, po, 10 mg/kg, Mongolian gerbils, dose 10, PO, read-out: bioavailability (%F)): ~100% | bioavailability ([3]; blood, po, 10 mg/kg, Table 3, PO, dose 10, read-out: %F): 100% | bioavailability ([3]; blood, sc, 10 mg/kg, Table 3, SC, dose 10, read-out: %F): 100% | accumulation of the compound ([3]; once daily dosing to gerbils over 7 days): no accumulation | dose proportionality of exposure ([3]; oral dosing to gerbils, up to 100 mg/kg): dose proportional | effective in killing female worms (Brugia pahangi; 100 mg/kg PO once daily for 14 days): 99% | effective in killing female worms (Brugia pahangi; 100 mg/kg PO once daily for 28 days): 99% | effect on worms (Brugia pahangi; 100 mg/kg PO once daily for only 7 days): very little effect | Number of Worms Recovered, Avg Female Worms (Brugia pahangi; 7 days, QD): 13.0 | Number of Worms Recovered, Avg Male Worms (Brugia pahangi; 7 days, QD): 25.2 | Number of Worms Recovered, Avg Female Worms (Brugia pahangi; 14 days, QD): 0.6 | Number of Worms Recovered, Avg Male Worms (Brugia pahangi; 14 days, QD): 11.4 | Number of Worms Recovered, Avg Female Worms (Brugia pahangi; 28 days QD): 0.1 | Number of Worms Recovered, Avg Male Worms (Brugia pahangi; 28 days QD): 11.1 | metabolism in metabolite ID studies [4]: have not observed a significant metabolism | tolerability [5]: well tolerated | IC50 (O. volvulus): 100 nM | MDCK-MDR1 Papp (A-B) (MDCK-MDR1 cell monolayer): 56.6 ×10⁻⁶ cm/s | Papp [6]: 56.6 ×10⁻⁶ cm/s
